These compounds were tested against T1, Ubiquitin carboxyl-terminal hydrolase 19 (Homo sapiens, UniProt O94966) (assay: Inhibition of C-terminal His6-tagged recombinant human USP19 using iso-peptide ubiquitin-Lys-TAMRA as substrate incubated for 30 mins and measured after 90 mins by fluorescent polarization assay).
T1 sequence (O94966 whole entry): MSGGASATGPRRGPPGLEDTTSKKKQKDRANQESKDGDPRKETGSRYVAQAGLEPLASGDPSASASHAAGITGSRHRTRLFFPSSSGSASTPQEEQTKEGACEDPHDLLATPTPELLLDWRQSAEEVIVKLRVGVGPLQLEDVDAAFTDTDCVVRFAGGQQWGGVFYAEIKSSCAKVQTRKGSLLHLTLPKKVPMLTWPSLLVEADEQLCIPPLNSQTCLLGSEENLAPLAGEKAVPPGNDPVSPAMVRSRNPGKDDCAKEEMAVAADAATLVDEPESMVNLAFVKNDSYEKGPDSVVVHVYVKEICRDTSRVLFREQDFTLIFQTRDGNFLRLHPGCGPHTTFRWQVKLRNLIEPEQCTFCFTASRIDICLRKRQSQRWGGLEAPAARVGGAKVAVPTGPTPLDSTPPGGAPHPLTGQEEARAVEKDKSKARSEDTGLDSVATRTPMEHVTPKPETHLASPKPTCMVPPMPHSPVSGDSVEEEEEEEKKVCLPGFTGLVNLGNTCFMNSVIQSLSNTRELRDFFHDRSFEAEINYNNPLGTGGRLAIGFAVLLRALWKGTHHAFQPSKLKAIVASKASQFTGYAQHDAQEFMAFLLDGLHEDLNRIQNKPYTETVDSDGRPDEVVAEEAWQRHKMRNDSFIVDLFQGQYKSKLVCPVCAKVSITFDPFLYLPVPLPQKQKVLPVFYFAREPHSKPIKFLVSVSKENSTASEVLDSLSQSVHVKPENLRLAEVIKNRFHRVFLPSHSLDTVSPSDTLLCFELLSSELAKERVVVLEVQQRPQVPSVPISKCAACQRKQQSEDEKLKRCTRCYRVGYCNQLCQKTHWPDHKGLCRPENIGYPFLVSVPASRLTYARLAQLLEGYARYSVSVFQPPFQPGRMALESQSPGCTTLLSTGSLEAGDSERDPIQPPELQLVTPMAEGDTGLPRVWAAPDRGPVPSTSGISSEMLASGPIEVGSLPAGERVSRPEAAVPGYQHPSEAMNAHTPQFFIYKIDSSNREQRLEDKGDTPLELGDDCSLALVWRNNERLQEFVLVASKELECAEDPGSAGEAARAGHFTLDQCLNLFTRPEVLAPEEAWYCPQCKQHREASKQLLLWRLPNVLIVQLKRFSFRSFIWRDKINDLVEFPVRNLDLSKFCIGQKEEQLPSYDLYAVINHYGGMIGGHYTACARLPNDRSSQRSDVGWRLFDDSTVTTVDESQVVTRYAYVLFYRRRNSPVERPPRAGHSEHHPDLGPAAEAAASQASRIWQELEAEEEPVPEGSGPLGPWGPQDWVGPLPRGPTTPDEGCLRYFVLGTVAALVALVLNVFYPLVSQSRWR

IC50 [nM] | SMILES
< 500 | C[C@H](CC1CCCCC1)C(=O)N1CC[C@@](O)(Cn2cc(C(=O)N3CCNCC3)c(-c3ccccc3F)cc2=O)C(C)(C)C1
< 500 | C[C@H](CC(F)(F)F)C(=O)N1CC[C@@](O)(Cn2cc(C(=O)N3CCNCC3)c(-c3ccccc3)cc2=O)C2(CCCC2)C1
< 500 | C[C@H](CC1CCCCC1)C(=O)N1CCC(O)(Cn2cc(C(=O)N(C)C)c(Cl)cc2=O)C2(CCCC2)C1 (stereo not given in full)
< 500 | C[C@H](CC(F)(F)F)C(=O)N1CC[C@@](O)(Cn2cnc(-c3cccc(F)c3)cc2=O)C2(CCCC2)C1
< 500 | C[C@H](CC1CCCCC1)C(=O)N1CC[C@@](O)(Cn2cc(C(=O)N3CCNC[C@H]3CO)c(-c3ccccc3)cc2=O)C(C)(C)C1
< 500 | CN(C)C(=O)c1cn(C[C@]2(O)CCN(C(=O)[C@H](CO)CC3CCC3)CC2(C)C)c(=O)cc1-c1ccccc1
< 500 | C[C@H](CC1CCCCC1)C(=O)N1CCC(O)(Cn2cnc(-c3ccc(CO)cc3)cc2=O)C(C)(C)C1 (stereo not given in full)
< 500 | C[C@H](CC1CCCCC1)C(=O)N1CCC(O)(Cn2cnc(-c3ccccc3CN)cc2=O)C(C)(C)C1 (stereo not given in full)
< 500 | C[C@H](CC1CCCCC1)C(=O)N1CCC(O)(Cn2cnc(-c3ccccc3)cc2=O)C(C)(C)C1 (stereo not given in full)
< 500 | CC(C)CC(C)C(=O)N1CCC(O)(Cn2cc(C(=O)N(C)C)c(-c3ccccc3)cc2=O)C2(CCCC2)C1 (stereo not given)
< 500 | C[C@H](CC1CCC1)C(=O)N1CC[C@@](O)(Cn2cc(C(=O)N(C)C)c(-c3ccccc3)cc2=O)C2(CCCC2)C1
< 500 | O=C(C1CCNC1c1ccccc1)N1CC[C@@](O)(Cn2cnc(-c3ccccc3)cc2=O)C2(CCCC2)C1 (stereo not given in full)
< 500 | C[C@H](CC1CCCCC1)C(=O)N1CC[C@@](O)(Cn2cc(C(=O)N(C)C)c(-c3ccccc3)cc2=O)C(C)(C)C1
≤ 5000 | O=C(c1cn(C[C@]2(O)CCN(C(=O)C(CC(F)(F)F)CC(F)(F)F)CC23CCCC3)c(=O)cc1-c1ccccc1)N1CCNCC1
≥ 50000 | CC(OC1CCCCC1)C(=O)N1CCC(O)(Cn2cnc(-c3ccccc3F)cc2=O)C(C)(C)C1 (stereo not given)
≥ 50000 | O=C(CCC1CCCC1)N1CCC(O)(Cn2cnc(-c3ccccc3F)cc2=O)CC1
< 500 | COC[C@H](CC1CCCCC1)C(=O)N1CC[C@@](O)(Cn2cc(C(=O)N(C)C)c(-c3ccccc3)cc2=O)C(C)(C)C1
< 500 | O=C(C1CNCC1c1ccccc1)N1CC[C@@](O)(Cn2cnc(-c3ccccc3)cc2=O)C2(CCCC2)C1 (stereo not given in full)
< 500 | CN(C)C(=O)c1cn(C[C@]2(O)CCN(C(=O)[C@H](CCO)CC3CCCCC3)CC2(C)C)c(=O)cc1-c1ccccc1

The remaining lines, values behind:

SMILES | IC50 [nM]
C[C@H](CC1CCCCC1)C(=O)N1CC[C@@](O)(Cn2cc(C(=O)O)c(-c3ccccc3)cc2=O)C2(CCCC2)C1 | < 500
CN(C)C(=O)c1cn(C[C@]2(O)CCN(C(=O)[C@H](CO)CC3CCCCC3)CC2(C)C)c(=O)cc1-c1ccccc1 | < 500
C[C@H](CC1CCCCC1)C(=O)N1CC[C@@](O)(Cn2cc(C(=O)N(C)C)c(-c3ccccc3F)cc2=O)C(C)(C)C1 | < 500
C[C@H](CC1CCCCC1)C(=O)N1CC[C@@](O)(Cn2cc(C(=O)N3CCNCC3)c(-c3ccccc3)cc2=O)C(C)(C)C1 | < 500
CC(C)N(C)C(=O)c1cn(C[C@]2(O)CCN(C(=O)[C@H](C)CC3CCCCC3)CC2(C)C)c(=O)cc1-c1ccccc1 | < 500
C[C@H](CC1CCC1)C(=O)N1CC[C@@](O)(Cn2cc(C(=O)N(C)C)c(-c3ccccc3F)cc2=O)C2(CCCC2)C1 | < 500
CC(CN1CCCCC1)C(=O)N1CCC(O)(Cn2cc(C(=O)N(C)C)c(-c3ccccc3)cc2=O)C2(CCCC2)C1 (stereo not given) | ≥ 5000
C[C@H](CC(F)(F)F)C(=O)N1CC[C@@](O)(Cn2cc(C(=O)N3CCN(C)CC3)c(-c3ccccc3)cc2=O)C2(CCCC2)C1 | < 500
CC(n1cnc(-c2ccccc2)cc1=O)C1(O)CCN(C(=O)[C@H](C)CC2CCCCC2)CC1 (stereo not given in full) | ≤ 5000
C[C@H](CC1CCCCC1)C(=O)N1CCC(O)(Cn2cc(C(=O)N(C)C)c(N(C)C)cc2=O)C2(CCCC2)C1 (stereo not given in full) | < 500
C[C@H](CC1CCCCC1)C(=O)N1CC[C@@](O)(Cn2cc(C(=O)N3CCNCC3)c(-c3ccccc3F)cc2=O)C2(CCCC2)C1 | < 500
O=C(C(F)CC1CCCCC1)N1CCC(O)(Cn2cnc(-c3ccccc3F)cc2=O)CC1 (racemic) | ≥ 50000
CN(C)C(=O)c1cn(CC2(O)CCN(C(=O)c3c[nH]nc3-c3ccccc3)CC23CCCC3)c(=O)cc1-c1ccccc1 (stereo not given) | ≤ 5000
C[C@H](CC1CCCCC1)C(=O)N1CC[C@@](O)(Cn2cc(C(=O)N(C)C)c(-c3ccccc3F)cc2=O)C2(CCCC2)C1 | < 500
O=C([C@@H]1CCNC[C@H]1c1ccccc1)N1CCC(O)(Cn2cnc(-c3ccccc3)cc2=O)C2(CCCC2)C1 (stereo not given in full) | < 500
C[C@H](CC1CCCCC1)C(=O)N1CCC(O)(Cn2cnc(-c3ccsc3)cc2=O)C(C)(C)C1 (stereo not given in full) | < 500
C[C@H](CC1CCCCC1)C(=O)N1CC[C@@](O)(Cn2cc(C(=O)N3CCC(O)CC3)c(-c3ccccc3)cc2=O)C(C)(C)C1 | < 500
O=C(CCC1CCC1)N1CCC(O)(Cn2cnc(-c3ccccc3F)cc2=O)CC1 | ≥ 50000
C[C@H](CC(F)(F)F)C(=O)N1CC[C@@](O)(Cn2cc(C(=O)N3CCOCC3)c(-c3ccccc3)cc2=O)C2(CCCC2)C1 | < 500
C[C@H](CC1CCCCC1)C(=O)N1CC[C@@](O)(Cn2cc(C(=O)N3CCN(C)CC3)c(-c3ccccc3)cc2=O)C2(CCCC2)C1 | < 500
C[C@H](CC1CCCCC1)C(=O)N1CCC(O)(Cn2cnc(-c3cccc(CO)c3)cc2=O)C(C)(C)C1 (stereo not given in full) | < 500

SMILES | IC50 [nM]
C[C@H](CC1CC1)C(=O)N1CCC(O)(Cn2cc(C(=O)N(C)C)c(-c3ccccc3)cc2=O)C2(CCCC2)C1 (stereo not given in full) | < 500
C[C@H](CC1CCCCC1)C(=O)N1CC[C@@](O)(Cn2cc(C(=O)N(C)C)c(-c3ccccc3)cc2=O)C2(CCCC2)C1 | < 500
C[C@H](CC1CCC1)C(=O)N1CC[C@@](O)(Cn2cc(C(=O)N3CCNCC3)c(-c3ccccc3)cc2=O)C2(CCCC2)C1 | < 500
CC(=O)N1CCN(C(=O)c2cn(CC3(O)CCN(C(=O)[C@H](C)CC4CCCCC4)CC3(C)C)c(=O)cc2-c2ccccc2)CC1 (stereo not given in full) | < 500
CN(C)C(=O)c1cn(CC2(O)CCN(C(=O)C(O)CC3CCCCC3)CC23CCCC3)c(=O)cc1-c1ccccc1 (stereo not given) | < 500
CC(Cc1ccccc1)C(=O)N1CCC(O)(Cn2cnc(-c3ccccc3F)cc2=O)CC1 (racemic) | ≥ 5000
CC(C)N(C)C(=O)c1cn(CC2(O)CCN(C(=O)[C@H](C)CC3CCCCC3)CC2(C)C)c(=O)cc1-c1ccccc1 (stereo not given in full) | < 500
C[C@H](CC(F)(F)F)C(=O)N1CC[C@@](O)(Cn2cc(C(=O)N(C)C)c(-c3ccccc3)cc2=O)C2(CCCC2)C1 | < 500
C[C@H](CC1CCCCC1)C(=O)N1CCC(O)(Cn2cnc(-c3ccccc3F)cc2=O)C2(CCCC2)C1 (stereo not given in full) | < 500
C[C@H](CC(F)(F)F)C(=O)N1CC[C@@](O)(Cn2cnc(-c3ccccc3)cc2=O)C2(CCCC2)C1 | < 500
C[C@H](CC1CCCCC1)C(=O)N1CCC(O)(Cn2cc(C(=O)N3CCOCC3)c(-c3ccccc3)cc2=O)C(C)(C)C1 (stereo not given in full) | < 500
CN(C)C(=O)c1cn(C[C@]2(O)CCN(C(=O)[C@H](CO)CC(F)(F)F)CC23CCCC3)c(=O)cc1-c1ccccc1 | < 500
C[C@H](CC1CCCCC1)C(=O)N1CCC(O)(Cn2cc(C(=O)N(C)C)c(-c3ccc(CO)cc3)cc2=O)C2(CCCC2)C1 (stereo not given in full) | < 500
O=C(c1cn(C[C@]2(O)CCN(C(=O)[C@H](CO)CC(F)(F)F)CC23CCCC3)c(=O)cc1-c1ccccc1)N1CCNCC1 | < 500
C[C@H](CC1CCCCC1)C(=O)N1CC[C@@](O)(Cn2cc(C(=O)N(C)C)c(C3CC3)cc2=O)C2(CCCC2)C1 | < 500
CN(C)C(=O)c1cn(CC2(O)CCN(C(=O)[C@@H]3C[C@@H]3c3ccccc3)CC23CCCC3)c(=O)cc1-c1ccccc1 (stereo not given in full) | < 500
O=C(CCc1ccccc1)N1CCC(O)(Cn2cnc(-c3ccccc3F)cc2=O)CC1 | ≥ 50000
O=C(c1cn(C[C@]2(O)CCN(C(=O)[C@H](CO)CC(F)(F)F)CC23CCCC3)c(=O)cc1-c1ccccc1)N1CCOCC1 | < 500
C[C@H](CC1CCCCC1)C(=O)N1CCC(O)(Cn2cc(C(=O)N3CCNCC3)c(-c3ccccc3)cc2=O)C2(CCCCC2)C1 (stereo not given in full) | < 500
C[C@H](CC1CCCCC1)C(=O)N1CC[C@@](O)(Cn2cc(C(=O)N3CCOCC3)c(-c3ccccc3)cc2=O)C2(CCCC2)C1 | < 500
